Source: US7842671B1, “Peptidomimetic inhibitors of STAT activity and uses thereof” (University of South Florida, priority 2003, dated 2010)

Tested on: Stat1:Stat1 and Stat3:Stat3 dimers
Assay: Dissociation-reassociation analysis of pooled Sf-9 lysates by EMSA
Format: biochemical
Details: 30 min pre-treatment, 30-300 μM PY*LKTK or 3-1000 μM ISS 610, hSIE probe
Protocol: Cytosolic extract preparation and luciferase assays. Cytosolic extract preparation from fibroblasts and luciferase assays were previously described (Turkson, J. et al. (1998); Turkson, J. et al. (1999)). Briefly, after two washes with PBS and equilibration for 5 min with 0.5 ml PBS-0.5 mM EDTA, cells were scraped off the dishes and the cell pellet was obtained by centrifugation (4,500×g, 2 min, 4° C.). Cells were resuspended in 0.4 ml of low-salt HEPES buffer (10 mM HEPES (pH 7.8), 10 mM KCl, 0.1 mM EGTA, 0.1 mM EDTA, 1 mM phenylmethylsulfonyl fluoride, and 1 mM dithiothreitol) for 15 min, lysed by the addition of 20 μl of 10% Nonidet P-40 (NP-40), and centrifuged (10,000×g, 30 s, 4° C.) to obtain the cytosolic supernatant, which was used for luciferase assays (Promega) measured with a luminometer. Cytosolic lysates containing activated Stat3 or Stat1 that were used for dissociation-reassociation analysis were prepared from baculovirus-infected Sf-9 insect cells as previously described (Turkson, J. et al. (2001); Zhang, Y. et al. (2000)). Briefly, cultured dishes of Sf-9 cells were washed twice with ice-cold 1×PBS and then PBS containing 1 mM sodium orthovanadate.

CC(C)CC(NC(=O)C(Cc1ccc(OP(=O)(O)O)cc1)NC(=O)c1ccc(C#N)cc1)C(=O)O (stereo not shown) [ISS 610]
effect on STAT dimers in mixed Stat1:Stat1 and Stat3:Stat3 lysates: appearance of an additional intermediate band representing Stat1:Stat3 heterodimers
